Assay results taken from ChEMBL document CHEMBL1201862, “PubChem BioAssay data set” (2004).
The source made the active and inactive calls.

Experiments:
Cytochrome P450 1A2 = target: T1, Cytochrome P450 1A2 (Homo sapiens, UniProt P05177);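 note: PubChem cytochrome P450 panel assay, CYP1A2 panel member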
T1 sequence (P05177 whole entry): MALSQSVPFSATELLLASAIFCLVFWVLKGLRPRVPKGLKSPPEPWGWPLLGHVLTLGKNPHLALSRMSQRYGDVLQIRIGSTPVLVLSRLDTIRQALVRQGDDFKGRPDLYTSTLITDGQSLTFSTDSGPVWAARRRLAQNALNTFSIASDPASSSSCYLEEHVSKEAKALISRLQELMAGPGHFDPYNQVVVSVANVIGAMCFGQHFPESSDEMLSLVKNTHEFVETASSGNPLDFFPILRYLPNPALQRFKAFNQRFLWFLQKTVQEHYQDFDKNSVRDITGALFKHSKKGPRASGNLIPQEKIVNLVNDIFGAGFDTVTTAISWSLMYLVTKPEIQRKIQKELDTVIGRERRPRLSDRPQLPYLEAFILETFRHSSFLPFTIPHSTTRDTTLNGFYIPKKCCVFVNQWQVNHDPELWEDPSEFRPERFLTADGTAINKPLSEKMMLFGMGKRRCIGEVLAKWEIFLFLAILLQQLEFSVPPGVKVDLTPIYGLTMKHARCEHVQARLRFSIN

[1] = insulin promoter down-regulators in MIN6 cells, imaging, high-content screening, mouse beta cells (AID 1628); format: functional
[2] = cytotoxicity in MIN6 insulinoma cells, dose response, cytotoxicity control, cell-based, mouse insulinoma (AID 2122); format: functional;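 note: confirmatory high-throughput counterscreen run to flag cytotoxic compounds; mouse MIN-6 beta cells carrying an insulin promoter eGFP reporter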
H4 = test: Luminescence Cell-Based Dose Response HTS to Identify Activators of 5'UTR Stem-Loop Driven Prion Protein mRNA Translation in H4 Neuroglioblastoma Cells. [Related pubchem assays: 1829 (Project Summary), 1814 (Primary HTS)]; format: functional; conditions: Homo sapiens
Large T antigen = Large T antigen (Simian virus 40, UniProt P03070); format: functional, Betapolyomavirus macacae;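 note: Confirmatory-stage PubChem screen for compounds that inhibit SV40 T antigen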
Large T antigen, sequence (P03070 whole entry): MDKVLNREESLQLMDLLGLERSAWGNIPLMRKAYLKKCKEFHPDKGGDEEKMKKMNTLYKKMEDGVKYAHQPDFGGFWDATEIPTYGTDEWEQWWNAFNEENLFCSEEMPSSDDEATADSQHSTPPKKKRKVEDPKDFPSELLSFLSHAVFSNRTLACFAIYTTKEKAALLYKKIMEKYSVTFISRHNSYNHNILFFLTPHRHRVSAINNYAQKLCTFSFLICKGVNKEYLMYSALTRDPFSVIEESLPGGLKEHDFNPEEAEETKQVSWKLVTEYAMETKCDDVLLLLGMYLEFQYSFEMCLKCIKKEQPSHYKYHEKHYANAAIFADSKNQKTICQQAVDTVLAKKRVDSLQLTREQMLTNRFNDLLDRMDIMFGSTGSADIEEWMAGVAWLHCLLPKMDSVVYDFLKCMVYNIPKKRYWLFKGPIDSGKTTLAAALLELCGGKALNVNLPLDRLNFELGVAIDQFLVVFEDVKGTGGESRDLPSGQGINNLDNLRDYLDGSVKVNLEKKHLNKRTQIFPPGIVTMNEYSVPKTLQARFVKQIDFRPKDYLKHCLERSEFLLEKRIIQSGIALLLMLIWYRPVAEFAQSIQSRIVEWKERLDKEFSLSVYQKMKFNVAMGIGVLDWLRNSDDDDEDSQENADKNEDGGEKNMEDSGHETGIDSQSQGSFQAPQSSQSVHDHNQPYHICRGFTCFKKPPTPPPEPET

[3] = target: Intestinal-type alkaline phosphatase (Mus musculus, UniProt P24822); test: PubChem AID 488785; format: functional
Intestinal-type alkaline phosphatase (Mus musculus, UniProt P24822), sequence (P24822 whole entry): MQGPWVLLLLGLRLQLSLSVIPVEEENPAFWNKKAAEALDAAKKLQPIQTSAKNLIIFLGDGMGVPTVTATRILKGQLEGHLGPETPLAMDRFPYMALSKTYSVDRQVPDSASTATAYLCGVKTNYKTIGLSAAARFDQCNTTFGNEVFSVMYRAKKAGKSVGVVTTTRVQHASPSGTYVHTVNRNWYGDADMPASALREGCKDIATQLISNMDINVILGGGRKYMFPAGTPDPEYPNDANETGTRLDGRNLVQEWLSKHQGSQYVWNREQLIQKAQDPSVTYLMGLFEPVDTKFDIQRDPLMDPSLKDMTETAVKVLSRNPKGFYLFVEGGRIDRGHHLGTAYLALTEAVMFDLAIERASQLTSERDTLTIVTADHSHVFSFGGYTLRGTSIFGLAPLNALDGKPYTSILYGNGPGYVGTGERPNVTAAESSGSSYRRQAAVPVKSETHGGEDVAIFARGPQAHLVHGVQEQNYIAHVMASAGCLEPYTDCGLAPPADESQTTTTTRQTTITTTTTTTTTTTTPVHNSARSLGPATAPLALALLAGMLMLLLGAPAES

[4] = target: T2, Alkaline phosphatase, tissue-nonspecific isozyme (Homo sapiens, UniProt P05186); test: TNAP enzyme inhibition by screening hits, dose response, selectivity assay for mouse IAP inhibitor project, biochemical, human TNAP, uHTS hits (AID 488906); format: functional
T2 sequence (P05186 whole entry): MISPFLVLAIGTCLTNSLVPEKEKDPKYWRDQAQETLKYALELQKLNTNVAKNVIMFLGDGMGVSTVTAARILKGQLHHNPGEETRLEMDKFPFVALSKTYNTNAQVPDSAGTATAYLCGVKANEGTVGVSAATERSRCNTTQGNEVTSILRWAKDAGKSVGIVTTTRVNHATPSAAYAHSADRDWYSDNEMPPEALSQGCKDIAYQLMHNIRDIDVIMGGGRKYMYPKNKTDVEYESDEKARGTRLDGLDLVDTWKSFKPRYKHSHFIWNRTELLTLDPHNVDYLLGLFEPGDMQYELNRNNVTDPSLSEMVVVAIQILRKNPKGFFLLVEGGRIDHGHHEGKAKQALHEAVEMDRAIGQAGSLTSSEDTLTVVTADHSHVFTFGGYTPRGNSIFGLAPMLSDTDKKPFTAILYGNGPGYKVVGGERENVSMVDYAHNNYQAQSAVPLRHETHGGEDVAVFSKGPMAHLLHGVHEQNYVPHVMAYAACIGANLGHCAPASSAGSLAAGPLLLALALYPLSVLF

[5] = target: Intestinal-type alkaline phosphatase (Homo sapiens, UniProt P09923); test: inhibition of human intestinal alkaline phosphatase – biochemical, dose response (AID 488876); format: functional
Intestinal-type alkaline phosphatase (Homo sapiens, UniProt P09923), sequence (P09923 whole entry): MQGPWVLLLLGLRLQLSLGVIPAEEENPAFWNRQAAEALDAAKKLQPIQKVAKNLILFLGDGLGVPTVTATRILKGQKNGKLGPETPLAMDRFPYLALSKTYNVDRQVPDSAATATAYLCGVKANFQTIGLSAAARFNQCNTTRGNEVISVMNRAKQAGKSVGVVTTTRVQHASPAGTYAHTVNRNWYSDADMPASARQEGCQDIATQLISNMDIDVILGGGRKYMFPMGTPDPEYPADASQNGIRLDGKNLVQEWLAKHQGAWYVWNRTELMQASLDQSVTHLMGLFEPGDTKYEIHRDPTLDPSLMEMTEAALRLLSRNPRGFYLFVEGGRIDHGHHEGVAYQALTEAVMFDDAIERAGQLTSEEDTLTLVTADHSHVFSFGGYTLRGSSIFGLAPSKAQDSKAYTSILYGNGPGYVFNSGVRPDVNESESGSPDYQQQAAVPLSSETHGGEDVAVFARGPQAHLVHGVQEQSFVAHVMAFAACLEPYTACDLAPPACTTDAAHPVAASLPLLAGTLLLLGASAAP

[6] = target: T3, Rac GTPase-activating protein 1 (Homo sapiens, UniProt Q9H0H5); test: MgcRacGAP GTPase-activating activity inhibitors, confirmation, biochemical, ADP Hunter fluorescence, primary and confirmatory (AID 624330); format: functional
T3 sequence (Q9H0H5 whole entry): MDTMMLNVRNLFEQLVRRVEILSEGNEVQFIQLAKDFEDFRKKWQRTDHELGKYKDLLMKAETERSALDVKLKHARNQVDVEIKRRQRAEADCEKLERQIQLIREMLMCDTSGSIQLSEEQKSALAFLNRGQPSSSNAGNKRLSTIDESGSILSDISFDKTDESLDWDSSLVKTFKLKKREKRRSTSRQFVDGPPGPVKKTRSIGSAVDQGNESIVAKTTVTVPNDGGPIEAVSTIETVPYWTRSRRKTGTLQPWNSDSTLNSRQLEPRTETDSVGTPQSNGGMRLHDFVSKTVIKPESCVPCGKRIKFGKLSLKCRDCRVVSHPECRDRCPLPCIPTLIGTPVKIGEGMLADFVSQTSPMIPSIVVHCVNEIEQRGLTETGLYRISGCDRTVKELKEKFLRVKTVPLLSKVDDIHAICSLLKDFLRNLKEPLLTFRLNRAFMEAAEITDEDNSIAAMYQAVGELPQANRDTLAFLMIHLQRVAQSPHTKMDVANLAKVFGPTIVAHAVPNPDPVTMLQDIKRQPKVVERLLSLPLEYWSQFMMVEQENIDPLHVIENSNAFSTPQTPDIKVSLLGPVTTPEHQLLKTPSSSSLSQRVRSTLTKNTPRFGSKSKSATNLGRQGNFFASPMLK

Protein Tat = Protein Tat (Human immunodeficiency virus type 1 group M subtype B (isolate HXB2)(HIV-1), UniProt P04608); format: functional;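 note: tat binding to TAR RNA read out by fluorescence polarization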
Protein Tat, sequence (P04608 whole entry): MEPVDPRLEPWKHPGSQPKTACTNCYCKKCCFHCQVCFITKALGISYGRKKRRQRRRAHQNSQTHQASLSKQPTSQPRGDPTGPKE

[7] = THP-1 cell cytotoxicity, dose response, cytotoxicity control for Vif-APOBEC3G degradation inhibitor project, THP-1 cells (AID 1117359); format: functional; conditions: Human immunodeficiency virus 1, THP-1

SMILES	AC50 (Cytochrome P450 1A2)	IC50 [1]	IC50 [2]	EC50 (H4)	IC50 (Large T antigen)	IC50 [3]	IC50 [4]	IC50 [5]	IC50 [6]	IC50 (Protein Tat)	CC50 [7]
Nc1ncnc2c1ncn2[C@H]1O[C@@H](C(=O)OCCO)[C@@H](O)[C@H]1O	inconclusive										
C/N=c1\scc(-c2ccco2)n1/N=C/c1ccc(O)c(O)c1		6.81 µM (active)	3.56 µM (active)	70.2 µM (active)	25.5 µM (active)	1.7 µM (active)	29.7 µM (active)	13.4 µM (active)	30.3 µM (active)	> 100 µM (active)	9.16 µM (active)
